# Values of other authors as cited in patent US11154520B2, “Combination therapy for metastatic cancer” (General Oncology, Inc., priority 2015, dated 2021).
# Conditions: decomposes intravascularly within seconds to 2,3-diketogulonic acid
compound,measurement,value
"O=C1O[C@H]([C@@H](O)CO)C(=O)C1=O [DHA, (5R)-5-[(1S)-1,2-dihydroxyethyl]oxolane-2,3,4-trione]",stability in blood,unstable
